Results taken from patent US6117859A, “Method of relieving chronic inflammation by using 5-alkylsulfonylsalicylanilides” (The Research Foundation of State University of New York, priority 1999, dated 2000).

Experiments:
[1] = in vivo; cited from earlier work
[2] = Solubility of representative compounds in various solvent systems; assay type: physicochemical
Protocol: The solubility of representative compounds of this invention in various solvent systems was determined. The solvents included ethanol, propylene glycol, SLS, Tween 80™ and combinations thereof.

[3] = system: ear weight gain produced by multiple doses of TPA in mice; experiment: Chronic (multiple dose) TPA mouse ear inflammation assay, ear weight gain; assay type: in vivo, mouse (female CD-1); conditions: for % Inhibition of Ear Weight Gain, Actual / % Inhibition of Ear Weight Gain, Relative to Hydrocortisone (HCV) = 100%: multiple doses of TPA; for % Inhibition of Ear Weight Gain, Relative to Hydrocortisone (HCV) = 100%: head prints 1.25 eg/ear
Protocol: The acute skin inflammation model described in Example 1, tests the ability of a compound to prevent inflammation and thus must be applied prophylactically. Most clinical situations, however, are present as chronic inflammatory conditions. […] The effects of the compounds of the present invention and Salifluor on chronically inflamed skin was measured in the mouse ear model that utilizes multiple TPA doses over a 10-day period to produce the inflammatory response.
The assay used female CD-1 mice (7-9 weeks of age). Following a 2-week quarantine, mice were randomly assigned to test groups (5 mice/groups). TPA (10 uL of 0.01 TPA in acetone) was administered to both the inner and outer surface of each ear (2μg/ear) on day 0,2,4,7, and 9 on protocol. On Day 7,8 and 9, two applications of test article were applied to each ear 2 and 4 hours after dosing with TPA. The test articles were administered in 10 uL aliquots to both the inner and outer surface of each ear (20 μl total/dose). […] Hydrocortisone-17-valerate (HCV, 20μg/ear) was employed as a positive control. Mice were sacrificed at Day 10 on protocol and uniform punch biopsies (approximately 8 mm dia.) were taken from each ear. While on protocol, dermal irritation was scored semiquantitatively at Day 1,3,5,8, and 10.
Inhibition of TPA stimulated increased ear weight was used as an initial measure of efficacy for all of the agents tested. One biopsy from each mouse was also quick frozen and stored at -70° C. for later assay of myleoperoxidase, an enzyme associated with infiltrating PMN, or other measure of efficacy. The remaining biopsy from each mouse treated with Trifluorosal or HCV was fixed in formalin and processed for histopathologic evaluation, including measurement of cellular infiltration (PMNs, endothelial cells, macrophages) and epidermal thickness at 20 random sites along the length of the specimen.
Initially, a dose-response curve for multiple doses of TPA to produce mouse ear weight gain was generated in order to determine the concentration of TPA to be employed in the inhibition studies. […] Another major difference between the multiple TPA dose (or chronic assay for inflammation) and the single TPA dose (or acute assay for inflammation) in the mouse ear is sensitivity to Non-steroidal antiinflammatory drugs (NSAIDs) and antihistamines.

[4] = prior art compound; cited from earlier work
[5] = prior art compound; cited from earlier work; remark: listed apart in the source
[6] = Single dose oral tolerance in rats; assay type: in vivo, rat (male weaning Sprague-Dawley); conditions: single dose 2.5 or 0.75 g/kg in 5% CMC, 7 days
Protocol: To test for tolerance of the administered compounds, male weaning Sprague-Dawley rats were fed in a single dose of 2.5 or 0.75 g/kg of TMF-12, TMF-10, TMC-10 or TPC-10 in 5% carboxymethyl cellulose (CMC) or CMC alone. […] At completion of the 7 day observation period, necropsies were performed on all animals.

[7] = Stability in solution by HPLC (TMF-10, 40° C.); assay type: physicochemical; conditions: 0.3 mg/ml in 30% ethanolic water, four weeks
Protocol: An analytical method to determine concentration and stability of some representative compounds of this invention in solution employing high pressure liquid chromatography (HPLC) was developed and validated. Both isocratic and gradient mobile phases of acetonitrile, water and methanol were investigated on a C-18 silica reverse solid phase column (Zorbax). Results were obtained using a 12 minute gradient of 80% to 100% methanol/water at a flow rate of 1.5 ml/minutes. Detection was carried out by measuring absorbance at 280 nm. Under these conditions TMF-10 and TMC-l0 each produced symmetrical peaks with retention times of 7.5 and 3.0 minutes, respectively. TMF-8 and TMF-12 had retention times of 4 and 9 minutes respectively. […] The lowest detectable quantity measured for all three compounds was 5.0 ng.
A 0.3 mg/ml solution of TMF-10 in 30% ethanolic water was maintained at 40° C. for several weeks. At various times samples were analyzed for decomposition employing the HPLC method described in Example 2.

[8] = aqueous buffer, pH 10 K-buffer @ 35° C.
[9] = aqueous buffer, pH 10 Na-buffer @ 22° C.
[10] = organic solvent or mixture, Ethanol @ 19° C.
[11] = organic solvent or mixture, Propylene Glycol @ 20° C.

SMILES | solubility ([2]; +1% sls) | solubility ([2]; +2% sls) | solubility ([2]; +4% sls) | solubility [2, 8] | solubility [2, 9] | solubility [2, 10] | solubility [2, 11] | % Inhibition of Ear Weight Gain, Actual [3] | % Inhibition of Ear Weight Gain, Relative to Hydrocortisone (HCV) = 100% [3] | also measured
CCCCCCCC(=O)c1ccc(O)c(C(=O)Nc2cccc(C(F)(F)F)c2)c1 [Salifluor, reference compound] | 230 µg/mL | 290 µg/mL | 380 µg/mL | 1.14 µg/mL | 3.91 µg/mL | 13000 µg/mL | 550 µg/mL | 0% | 0% | Anti-inflammatory activity in clinical trials [1]: have been reported to have anti-inflammatory activity in clinical trials; Solubility in aqueous solutions at neutral pH [4]: relatively insoluble in aqueous solutions at neutral pH; pKa [5]: 6.1
CCCCCCCCCCS(=O)(=O)c1ccc(O)c(C(=O)Nc2cccc(C(F)(F)F)c2)c1 [TMF-10] | 920 µg/mL | 1280 µg/mL | 2080 µg/mL | < 0.1 µg/mL | 1.89 µg/mL | 44700 µg/mL | 1700 µg/mL | 54.7% | 59.9% | Illness or deaths [6]: No illness or deaths occurred; solubility ([2]; +0.5% tween 80): 760 µg/mL; solubility ([2]; +1.5% tween 80): 2020 µg/mL; solubility ([2]; +2% SLS + 0.5% Tween 80): 1350 µg/mL; solubility ([2]; +2% SLS + 1.0% Tween 80): 1910 µg/mL; solubility ([2]; +2% SLS + 2.0% Tween 80): 2870 µg/mL; solubility ([2]; +3.0% tween 80): 4130 µg/mL; solubility ([2]; ph 10 na-buffer +0.5% sls, pH 10 Na-buffer @ 22° C. +0.5% SLS): 370 µg/mL; Inhibition of ear weight gain ([3]; 5.0 mg/ear (printed 'mc/ear' for Trifluorosal)): 69.8%; Activity in chronic assay (in words) ([3]; 1.25-5 mg/ear, remaining experiments): demonstrated consistent activity; Inhibition of ear weight gain ([3]; 2.5 or 1.25 mg/ear (two values printed for three doses)): 0.0%; Decomposition in solution [7]: no decomposition of TMF-10 was detected
